Source: paper PMC10975527 (Viruses, 2024)
Counter-ions that a name gives are not always drawn. Like-named read-outs stand apart in the source and are kept apart here.

What was measured:
rats [1] = conditions: rat, in vivo; cited from earlier work
dogs = conditions: dog, in vivo; cited from earlier work
[2] = plasma, cited from earlier work
HBV [3] = test: In vitro combination study in HepG2.2.15 cells; type: cell-based, hepatitis B virus; conditions: for interference with HBsAg inhibition by AB-161: HepG2.2.15, combined with AB-161; for effect on the levels of HBsAg: HepG2.2.15, compound alone; for Antagonism / Synergy / Conclusion (combination effect): Inhibitor A combined with AB-161, HBV DNA; for Antagonism / Synergy: 99.9% confidence; for Conclusion (combination effect): Prichard and Shipman criteria
HBV [4] = test: HBV life cycle analysis in HepG2.2.15 cells; type: cell-based, hepatitis B virus; conditions: ETV 1 μM, GLS4 1 μM, AB-161 100 nM
Wild-type HBV = test: HBV polymerase variant phenotyping in Huh-7: wild-type; conditions: Hepatitis B virus, Huh-7, read-out: HBV DNA, EC50
rats [5] = conditions: cited from earlier work
monkeys = system: monkeys; parameters: method as in earlier work; conditions: 9 months dosing; cited from earlier work

In the case of `COCCCOc1cc2c(nc1OC)-c1cc(=O)c(C(=O)O)cn1[C@H](C(C)C)C2` [AB-452, (S)-6-Isopropyl-2-methoxy-3-(3-methoxypropoxy)-10-oxo-5,10-dihydro-6H-pyrido [1,2-h][1,7]naphthyridine-9-carboxylic Acid], the “findings in male reproductive tissues” value (rats [1]) is given as “Decreased epididymis and minimal-to-mild spermatid depletion”, the “histopathology of sciatic nerves” value (rats [1]) is given as “axonal degeneration” and the “histopathology of spinal nerves” value (dogs) is given as “axonal degeneration”. The protein binding [2] was about 50%.

In the case of `C=C1[C@H](CO)[C@@H](O)C[C@@H]1n1cnc2c(=O)[nH]c(N)nc21` [ETV, entecavir], the “interference with HBsAg inhibition by AB-161” value (HBV [3]) is reported as “did not interfere”, the “effect on the levels of HBsAg” value (HBV [3]) is reported as “do not affect” and the EC50 (HBV [3]; Hepatitis B virus, HepG2.2.15, read-out: Inhibitor A EC50) is reported as 5.1 ± 1.1 nM. The Antagonism (HBV [3]) was −3.99 ± 3.59 µM^2%, the Synergy (HBV [3]) was 0.00 ± 0.00 µM^2% and the “Conclusion (combination effect)” value (HBV [3]) was “Additive”. The “HBV DNA replication” value (HBV [4]) was “profoundly inhibited”, the “intracellular HBV RNA (pgRNA, preS/S RNA)” value (HBV [4]) was “no effect” and the “viral proteins: HBV core and capsid assembly” value (HBV [4]) was “no effect”. It also gave an EC50 (Wild-type HBV) of 17 nM.

In the case of `CCOC(=O)C1=C(CN2CCOCC2)NC(c2nccs2)=NC1c1ccc(F)cc1Br` (centres unmarked) [GLS4], the “HBV DNA replication” value (HBV [4]) is reported as “substantially reduced”, the “intracellular HBV RNA (pgRNA, preS/S RNA)” value (HBV [4]) is reported as “no effect” and the “viral proteins: HBV core and capsid assembly” value (HBV [4]) is reported as “substantially reduced”.

In the case of `COCCCOc1cc2c(cc1OC)-c1cc(=O)c(C(=O)O)cn1[C@H](C(C)C)C2` [RG7834], the neurotoxicity (rats [5]; 6 months dosing) is listed as “dose- and time-dependent neurotoxicity”, the “male reproductive adverse events” value (rats [5]) is listed as “abnormal sperm and testicular changes” and the protein binding ([2]; species not stated) is listed as about 56%. The neurotoxicity (monkeys) was “dose- and time-dependent neurotoxicity”.

In the case of `CC(C)OC(=O)OCOP(=O)(CO[C@H](C)Cn1cnc2c(N)ncnc21)OCOC(=O)OC(C)C` [TDF, tenofovir disoproxil fumarate], the “interference with HBsAg inhibition by AB-161” value (HBV [3]) is reported as “did not interfere”, the “effect on the levels of HBsAg” value (HBV [3]) is reported as “do not affect” and the Antagonism (HBV [3]) is reported as −0.43 ± 0.744 µM^2%. The Synergy (HBV [3]) was 0.00 ± 0.00 µM^2% and the “Conclusion (combination effect)” value (HBV [3]) was “Additive”.
